Data reported in US20060293228A1, “Therapeutic compositions and methods using transforming growth factor-beta mimics” (priority 2005, published 2006).
Where a SMILES comes first, the peptide text is derived from it. Where no end group is shown, it is not given here.

Columns and labels:
[1] = tested on: insect bite; set-up: species or system human; details: in vivo
Source text: A person reported that they were very allergic to insect bites, which usually made a large red welt, then turned purple and looked like a severe bruise, lasting for about a week.

[2] = tested on: contact dermatitis on both hands; set-up: species or system human; details: in vivo
Source text: A person had suffered from contact dermatitis on both hands for approximately 5 to 6 years. Signs of dermatitis, such as rash, itching, crustiness, thin skin (steroids) when flexed hand would start bleeding where lines, were apparent over approximately 100 cm^2 of the right and left hands, respectively (all of palm and fingers). The individual applied a lotion comprising cytomodulin (SEQ ID NO: 1) at a concentration of about approximately 0.01% once per day at night. The amount applied was about 0.25 ml per hand. After 3-4 days healing of the dermatitis was apparent. In approximately two weeks the dermatitis was completely healed.

[3] = tested on: Mv-1-Lu mink lung epithelial cells; test: Inhibition of DNA synthesis (3H-thymidine incorporation) of Mv-1-Lu mink lung epithelial cells; format: cell-based; details: cytomodulin at the same concentration
Method: The effect of TGF-β and cytomodulin were evaluated by determining the rate of [1H]thymidine incorporation into total acid-insoluble DNA and cell number. See generally, Sampath et al., J. Biol. Chem., 267, pp. 20352-20362 (1992). DNA synthesis rates were determined in triplicate cultures after 24 hour treatment with various concentrations (10^-9 M to 10^-6 M) of either TGF-β or cytomodulin (which was synthesized by the Merrifield method) by adding [methyl-3H]thymidine (2 uCi/ml, 80 Ci/mmol) for 6 hours before the termination of the culture. Incorporation was terminated by aspiration of the medium, and after washing three times with phosphate-buffered saline, the trichloroacetic acid (10%)-precipitated radioactive DNA was extracted with 1.0% (w/v) sodium dodecyl sulfate, 0.1 M NaOH and quantitated by liquid scintillation counting. For cell number determination, 1×10^5 cells were plated in flasks in MEM containing 10% FBS, and after 24 hours, the growth medium was replaced with serum-free medium containing various conceptions of TGF-β and cytomodulin. Triplicate cultures were harvested every 24 hours for the duration of 7 days, and the cell number was determined by counting cells released by trypsin digestion in a fixed volume hemacytometer.
The numbers shown at the various concentration are the ratio of the inhibition rate of the peptide being tested over the inhibition rate of cytomodulin (SEQ ID NO: 1) at the same concentration.

[4] = tested on: NRK-49 F fibroblasts; test: Growth and colony formation by NRK-49 F fibroblasts in soft agar; format: cell-based
Method: The original assay for TGF-β, the ability to promote anchorage independent growth of normal fibroblasts is still one of the hallmarks of TGF-β activity. NRK49 F fibroblasts were grown at 37° C. in DEM supplemented with 10% fetal calf serum. […] To this, either 100 nM TGF-β (positive control) or 100 nM cytomodulin was added. NRK49 F fibroblasts (5×10^4 cells/ml) were mixed with 0.3% agar were plated on the bottom of 35 mm culture dishes. Colony formation was observed starting on day 3 of culture.

CC(C)[C@H](NC(=O)[C@H](CC(N)=O)NC(=O)[C@H](C)N)C(=O)N[C@@H](C)C(=O)N[C@@H](CCC(=O)O)C(=O)N[C@@H](CC(N)=O)C(=O)N[C@@H](C)C(=O)O [cytomodulin, Ala-Asn-Val-Ala-Glu-Asn-Ala] (H-ANVAENA-OH)
adverse effects [1]: no adverse effects
negative effects of application of the lotion [2]: No negative effects

A-N-V-A-E-K (ANVAEK) [SEQ ID NO: 15]
Inhib by new peptide/Inhib by cytomodulin (3H-thymidine incorporation) ([3]; 10 nM): 0.80
Inhib by new peptide/Inhib by cytomodulin (3H-thymidine incorporation) ([3]; 100 nM): 1.00

L-I-A-D-A-K (LIADAK) [SEQ ID NO: 9]
Inhib by new peptide/Inhib by cytomodulin (3H-thymidine incorporation) ([3]; 1 nM): 0.45
Inhib by new peptide/Inhib by cytomodulin (3H-thymidine incorporation) ([3]; 10 nM): 0.87
Inhib by new peptide/Inhib by cytomodulin (3H-thymidine incorporation) ([3]; 100 nM): 1.14
Inhib by new peptide/Inhib by cytomodulin (3H-thymidine incorporation) ([3]; 1000 nM): 1.25

L-I-A-E-A-A (LIAEAA) [SEQ ID NO: 11]
Inhib by new peptide/Inhib by cytomodulin (3H-thymidine incorporation) ([3]; 1 nM): 1.16
Inhib by new peptide/Inhib by cytomodulin (3H-thymidine incorporation) ([3]; 10 nM): 1.00
Inhib by new peptide/Inhib by cytomodulin (3H-thymidine incorporation) ([3]; 100 nM): 1.17
Inhib by new peptide/Inhib by cytomodulin (3H-thymidine incorporation) ([3]; 1000 nM): 1.85

L-I-A-G-E-G (LIAGEG) [SEQ ID NO: 14]
Inhib by new peptide/Inhib by cytomodulin (3H-thymidine incorporation) ([3]; 1 nM): 0.66
Inhib by new peptide/Inhib by cytomodulin (3H-thymidine incorporation) ([3]; 10 nM): 0.85
Inhib by new peptide/Inhib by cytomodulin (3H-thymidine incorporation) ([3]; 100 nM): 1.41
Inhib by new peptide/Inhib by cytomodulin (3H-thymidine incorporation) ([3]; 1000 nM): 1.88

L-I-A-G-G-E (LIAGGE) [SEQ ID NO: 13]
Inhib by new peptide/Inhib by cytomodulin (3H-thymidine incorporation) ([3]; 1 nM): 1.10
Inhib by new peptide/Inhib by cytomodulin (3H-thymidine incorporation) ([3]; 10 nM): 1.33
Inhib by new peptide/Inhib by cytomodulin (3H-thymidine incorporation) ([3]; 100 nM): 1.45
Inhib by new peptide/Inhib by cytomodulin (3H-thymidine incorporation) ([3]; 1000 nM): 1.90

L-I-A-K-G-K (LIAKGK) [SEQ ID NO: 16]
Inhib by new peptide/Inhib by cytomodulin (3H-thymidine incorporation) ([3]; 10 nM): 0.65
Inhib by new peptide/Inhib by cytomodulin (3H-thymidine incorporation) ([3]; 100 nM): 0.67

L-I-A-N-A-K (LIANAK) [SEQ ID NO: 10]
Inhib by new peptide/Inhib by cytomodulin (3H-thymidine incorporation) ([3]; 1 nM): 1.70
Inhib by new peptide/Inhib by cytomodulin (3H-thymidine incorporation) ([3]; 10 nM): 2.00
Inhib by new peptide/Inhib by cytomodulin (3H-thymidine incorporation) ([3]; 100 nM): 1.43
Inhib by new peptide/Inhib by cytomodulin (3H-thymidine incorporation) ([3]; 1000 nM): 3.05

L-I-A-Q-A-K (LIAQAK) [SEQ ID NO: 12]
Inhib by new peptide/Inhib by cytomodulin (3H-thymidine incorporation) ([3]; 1 nM): 0.90
Inhib by new peptide/Inhib by cytomodulin (3H-thymidine incorporation) ([3]; 10 nM): 1.10
Inhib by new peptide/Inhib by cytomodulin (3H-thymidine incorporation) ([3]; 100 nM): 0.80
Inhib by new peptide/Inhib by cytomodulin (3H-thymidine incorporation) ([3]; 1000 nM): 1.56

LIAEAK [L2]
growth and colony formation of NRK-49 F cells in soft agar (in words) [4]: promoted the growth

LIAPEA [L1]
growth and colony formation of NRK-49 F cells in soft agar (in words) [4]: promoted the growth
